Source: patent US20090209536A1, “AMINOQUINAZOLINE CANNABINOID RECEPTOR MODULATORS FOR TREATMENT OF DISEASE” (KALYPSYS, INC., priority 2007, published 2009)
Like-named read-outs stand apart in the source and are kept apart here.

Assays:
[1] = molecular target: T1, human cannabinoid receptor type 1 (Homo sapiens, UniProt P21554); assay: Human CB1 Radioligand Binding Assay (basis of selectivity, CB2 vs. CB1); details: CB1: HEK 293 EBNA cells expressing human CB1; CB2: CHO CB2 membranes
T1 construct: purchased Perkin Elmer RBHCB1M; host or cells: HEK 293 EBNA cells
Procedure: 2. Human CB1 Radioligand Binding Assay
The incubation buffer was composed of 50 mM Tris-HCl pH 7.4, 2.5 mM EDTA, 5 mM MgCl2, 5.0 mg/ml fatty acid free BSA and the wash buffer was composed of 50 mM Tris-HCl pH 7.4, 2.5 mM EDTA, 5 mM MgCl2, 0.5 mg/ml fatty acid free BSA.

[2] = molecular target: T2, human cannabinoid receptor type 2 (Homo sapiens, UniProt P34972); assay: Human CB2 Radioligand Binding Assay; details: membranes from stably transfected CHO CB2 cells
T2 construct: expressed in transfected cells; membrane preparation
How it was run: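 Test compounds (10 uM final, or dose-response) competed with [3H]CP-55,940, used at the Kd determined per membrane lot, for binding to stable human CB2-CHO membranes over 90 min at 30° C in pH 7.4 Tris/EGTA/MgCl2/BSA buffer. GF/C filtration then scintillation counting; 100 nM CP-55,940 defined 100% efficacy.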

[3] = competition with [3H] CP-55,940, read-out: CB2 Ligand Binding Asssay EC50

T1 sequence (P21554 whole entry): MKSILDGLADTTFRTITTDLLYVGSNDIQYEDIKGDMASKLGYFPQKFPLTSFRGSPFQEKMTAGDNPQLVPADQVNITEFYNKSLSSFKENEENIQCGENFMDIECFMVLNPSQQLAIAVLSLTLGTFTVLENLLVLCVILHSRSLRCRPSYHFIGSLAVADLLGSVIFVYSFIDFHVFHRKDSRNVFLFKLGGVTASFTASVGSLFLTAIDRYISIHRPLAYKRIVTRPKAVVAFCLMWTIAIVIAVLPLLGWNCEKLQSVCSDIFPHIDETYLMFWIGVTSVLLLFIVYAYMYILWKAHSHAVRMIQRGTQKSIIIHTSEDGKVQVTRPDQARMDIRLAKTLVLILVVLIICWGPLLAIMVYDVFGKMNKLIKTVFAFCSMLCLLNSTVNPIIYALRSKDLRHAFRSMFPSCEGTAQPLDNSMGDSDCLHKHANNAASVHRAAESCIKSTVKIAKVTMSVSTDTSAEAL
T2 sequence (P34972 whole entry): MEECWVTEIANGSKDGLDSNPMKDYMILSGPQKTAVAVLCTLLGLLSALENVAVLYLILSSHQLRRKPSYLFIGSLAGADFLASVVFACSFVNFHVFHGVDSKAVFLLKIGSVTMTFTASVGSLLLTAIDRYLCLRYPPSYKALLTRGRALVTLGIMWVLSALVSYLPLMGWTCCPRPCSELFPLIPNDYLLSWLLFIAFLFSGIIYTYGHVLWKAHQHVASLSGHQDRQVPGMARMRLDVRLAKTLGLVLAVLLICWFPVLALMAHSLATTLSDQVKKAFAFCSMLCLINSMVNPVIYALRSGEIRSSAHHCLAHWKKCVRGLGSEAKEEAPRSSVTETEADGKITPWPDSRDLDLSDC

Compound	Selectivity, CB2 vs. CB1 [1]	EC50 [2, 3] [nM]	EC50 ([2]; CB2 Ligand Binding Asssay EC50, competition with [3H] CP-55,940) [nM]
CN(c1ccc(C(C)(C)C)cc1)c1nc(-c2ccc(C(C)(C)C)cc2)nc2ccccc12 [Example 119, N,2-Bis(4-tert-butylphenyl)-N-methylquinazolin-4-amine]	− (− indicates ≦ 10−fold)	> 1000	–
CN(Cc1ccccc1)c1nc(-c2ccc(Cl)cc2)nc2ccccc12 [Example 120, N-Benzyl-2-(4-chlorophenyl)-N-methylquinazolin-4-amine]	− (− indicates ≦ 10−fold)	> 1000	–
Clc1ccc(-c2nc(NCc3ccccc3)c3ccccc3n2)cc1 [Example 121, N-Benzyl-2-(4-chlorophenyl)quinazolin-4-amine]	− (− indicates ≦ 10−fold)	> 1000	–
CN1CCN(c2nc(-c3ccc(Cl)cc3)nc3ccccc23)CC1 [Example 122, 2-(4-Chlorophenyl)-4-(4-methylpiperazin-1-yl)quinazoline]	+ (+ indicates > 10−fold)	< 1000	–
Clc1ccc(-c2nc(N3CCc4ccccc4C3)c3ccccc3n2)cc1 [Example 123, 2-(4-Chlorophenyl)-4-(3,4-dihydro-1H-isoquinolin-2-yl)quinazoline]	− (− indicates ≦ 10−fold)	> 1000	–
CC1CCCCN1c1nc(-c2ccc(Cl)cc2)nc2ccccc12 (stereo not drawn) [Example 124, 2-(4-Chlorophenyl)-4-(2-methylpiperidin-1-yl)quinazoline]	− (− indicates ≦ 10−fold)	> 1000	–
CC1CCN(c2nc(-c3ccc(Cl)cc3)nc3ccccc23)CC1 [Example 125, 2-(4-Chlorophenyl)-4-(4-methylpiperidin-1-yl)quinazoline]	− (− indicates ≦ 10−fold)	< 1000	–
Clc1ccc(-c2nc(N3CCOCC3)c3ccccc3n2)cc1 [Example 126, 4-(2-(4-Chlorophenyl)quinazolin-4-yl)morpholine]	+ (+ indicates > 10−fold)	< 1000	–
Clc1ccc(-c2nc(N3CCCCC3)c3ccccc3n2)cc1 [Example 127, 2-(4-Chlorophenyl)-4-(piperidin-1-yl)quinazoline]	− (− indicates ≦ 10−fold)	> 1000	–
Clc1ccc(-c2nc(N3CCCC3)c3ccccc3n2)cc1 [Example 128, 2-(4-Chlorophenyl)-4-(pyrrolidin-1-yl)quinazoline]	+ (+ indicates > 10−fold)	< 1000	–
CC(C)(C)c1ccc(-c2nc(NCC3CC3)c3ccccc3n2)cc1 [Example 130, 2-(4-tert-Butylphenyl)quinazolin-4-yl cyclopropylmethylamine]	+ (+ indicates > 10−fold)	< 1000	–
CN(c1nc(-c2ccc(C(C)(C)C)cc2)nc2ccccc12)C1CCCCC1 [Example 131, 2-(4-tert-Butylphenyl)quinazolin-4-yl cyclohexylmethylamine]	− (− indicates ≦ 10−fold)	< 1000	–
CN(CC1CC1)c1nc(-c2ccc(C(C)(C)C)cc2)nc2ccccc12 [Example 132, 2-(4-tert-Butylphenyl)quinazolin-4-yl cyclopropylmethyl-N-methylamine]	− (− indicates ≦ 10−fold)	< 1000	–
CC(C)(C)c1ccc(-c2nc(Nc3ccccc3Cl)c3ccccc3n2)cc1 [Example 133, 2-(4-tert-Butylphenyl)quinazolin-4-yl 2-chlorophenylamine]	− (− indicates ≦ 10−fold)	> 1000	–
CN(c1ccccc1Cl)c1nc(-c2ccc(C(C)(C)C)cc2)nc2ccccc12 [Example 134, 2-(4-tert-Butylphenyl)quinazolin-4-yl 2-chlorophenyl-N-methylamine]	− (− indicates ≦ 10−fold)	< 1000	–
c1ccc2c(N3CCCCC3)nc(C3CCCC3)nc2c1 [Example 136, 2-Cyclopentyl-4-piperidin-1-ylquinazoline]	− (− indicates ≦ 10−fold)	> 1000	–
c1ccc2c(N3CCOCC3)nc(C3CCCC3)nc2c1 [Example 137, 2-Cyclopentyl-4-morpholin-4-ylquinazoline]	− (− indicates ≦ 10−fold)	> 1000	–
CN1CCN(c2nc(C3CCCC3)nc3ccccc23)CC1 [Example 138, 2-Cyclopentyl-4-(4-methylpiperazin-1-yl)quinazoline]	+ (+ indicates > 10−fold)	< 1000	–
FC(F)(F)Oc1ccc(-c2nc(N3CCCC3)c3ccccc3n2)cc1 [Example 139, 4-Pyrrolidin-1-yl-2-(4-trifluoromethoxyphenyl)quinazoline]	− (− indicates ≦ 10−fold)	< 1000	–
FC(F)(F)Oc1ccc(-c2nc(N3CCCCC3)c3ccccc3n2)cc1 [Example 140, 4-Piperidin-1-yl-2-(4-trifluoromethoxyphenyl)quinazoline]	− (− indicates ≦ 10−fold)	< 1000	–
FC(F)(F)Oc1ccc(-c2nc(N3CCOCC3)c3ccccc3n2)cc1 [Example 141, 4-Morpholin-4-yl-2-(4-trifluoromethoxyphenyl)quinazoline]	− (− indicates ≦ 10−fold)	> 1000	–
CN1CCN(c2nc(-c3ccc(OC(F)(F)F)cc3)nc3ccccc23)CC1 [Example 142, 4-(4-Methylpiperazin-1-yl)-2-(4-trifluoromethoxyphenyl)quinazoline]	− (− indicates ≦ 10−fold)	< 1000	–
CN(c1ccc(C(C)(C)C)cc1)c1nc(-c2ccc(OC(F)(F)F)cc2)nc2ccccc12 [Example 144, (4-tert-Butylphenyl)methyl-[2-(4-trifluoromethoxyphenyl)quinazolin-4-yl]amine]	− (− indicates ≦ 10−fold)	> 1000	–
CC(C)c1nc(N2CCCC2)c2ccccc2n1 [Example 145, 2-Isopropyl-4-pyrrolidin-1-ylquinazoline]	− (− indicates ≦ 10−fold)	> 1000	–
CC(C)c1nc(N2CCCCC2)c2ccccc2n1 [Example 146, 2-Isopropyl-4-piperidin-1-ylquinazoline]	− (− indicates ≦ 10−fold)	> 1000	–
CC(C)c1nc(N2CCOCC2)c2ccccc2n1 [Example 147, 2-Isopropyl-4-morpholin-4-ylquinazoline]	− (− indicates ≦ 10−fold)	–	> 1000
CC(C)c1nc(N2CCN(C)CC2)c2ccccc2n1 [Example 148, 2-Isopropyl-4-(4-methylpiperazin-1-yl)quinazoline]	− (− indicates ≦ 10−fold)	> 1000	–
Fc1ccccc1-c1nc(N2CCOCC2)c2ccccc2n1 [Example 149, 2-(2-Fluorophenyl)-4-morpholin-4-ylquinazoline]	− (− indicates ≦ 10−fold)	> 1000	–
Fc1ccccc1-c1nc(N2CCCCC2)c2ccccc2n1 [Example 150, 2-(2-Fluorophenyl)-4-piperidin-1-ylquinazoline]	− (− indicates ≦ 10−fold)	< 1000	–
Fc1ccccc1-c1nc(N2CCCC2)c2ccccc2n1 [Example 151, 2-(2-Fluorophenyl)-4-pyrrolidin-1-ylquinazoline]	− (− indicates ≦ 10−fold)	< 1000	–
